Results taken from article PMC8245078, “Development of novel benzofuran-isatin conjugates as potential antiproliferative agents with apoptosis inducing mechanism in Colon cancer” (Journal of Enzyme Inhibition and Medicinal Chemistry, 2021).

Columns and labels:
[1] = test system: OVCAR-5; format: cell-based; settings: Homo sapiens; OVCAR-5, five-dose test; read-out: LC50 (the source's name)
[2] = test system: DU-145; format: cell-based; settings: Homo sapiens; DU-145, five-dose test
[3] = test system: MOLT-4; format: cell-based; settings: MOLT-4, five-dose test
[4] = test system: Breast Cancer subpanel; format: cell-based, human
[5] = test system: Renal Cancer subpanel; format: cell-based, human
[6] = test system: CNS Cancer subpanel; format: cell-based, human
[7] = test system: Ovarian Cancer subpanel; format: cell-based, human
[8] = test system: UACC-62; format: cell-based; settings: UACC-62, five-dose test
[9] = test system: SK-MEL-5; format: cell-based; settings: Homo sapiens; SK-MEL-5, five-dose test
[10] = test system: MCF7; format: cell-based; settings: MCF7, five-dose test
[11] = test system: OVCAR-8; format: cell-based; settings: OVCAR-8, five-dose test
[12] = test system: EKVX; format: cell-based; settings: five-dose test
[13] = test system: TK-10; format: cell-based, human; settings: TK-10, five-dose test
[14] = test system: SF-268; format: cell-based; settings: SF-268, five-dose test
[15] = test system: SK-MEL-2; format: cell-based; settings: SK-MEL-2, five-dose test
[16] = test system: HL60(TB); format: cell-based
[17] = test system: COLO 205; format: cell-based; settings: COLO 205, five-dose test
[18] = test system: A498; format: cell-based, human; settings: A498, five-dose test
[19] = test system: HOP-62; format: cell-based; settings: HOP-62, five-dose test
[20] = test system: K-562; format: cell-based; settings: K-562, five-dose test
[21] = test system: MALME-3M; format: cell-based, human; settings: five-dose test
[22] = test system: HOP-92; format: cell-based, human; settings: HOP-92, five-dose test
[23] = test system: U251; format: cell-based, human; settings: U251, five-dose test
[24] = test system: LOX IMVI; format: cell-based; settings: five-dose test
[25] = test system: HCC-2998; format: cell-based; settings: HCC-2998, five-dose test
[26] = test system: SF-295; format: cell-based, human; settings: SF-295, five-dose test
[27] = test system: NCI-H226; format: cell-based; settings: Homo sapiens, NCI-H226, five-dose test
[28] = test system: MDA-MB-231/ATCC; format: cell-based; settings: five-dose test
[29] = test system: NCI-H522; format: cell-based; settings: NCI-H522, five-dose test
[30] = test system: SNB-19; format: cell-based; settings: SNB-19, five-dose test
[31] = test system: non-small cell lung cancer subpanel; format: cell-based, human
[32] = test system: BT-549; format: cell-based; settings: BT-549, five-dose test
[33] = test system: PC-3; format: cell-based; settings: PC-3, five-dose test
[34] = Homo sapiens, read-out: LC50 (the source's name)

With `COc1ccc2c(c1)/C(=N/NC(=O)c1oc3ccccc3c1C)C(=O)N2` [Compound 5d] the CC50 [1] was > 100 µM, the LC50 [2] was > 100 µM and the LC50 ([3]; Homo sapiens) was > 100 µM. The TGI [3] was >100 µM, the GI50 ([4]; Homo sapiens, Breast Cancer subpanel, read-out: MG-MID (GI50 average of the subpanel)) was 2.83 µM and the Selectivity index ([4]; full panel MID / subpanel MID, Breast Cancer) was 0.88. For the same molecule, the GI50 ([5]; Homo sapiens, Renal Cancer subpanel, read-out: MG-MID (GI50 average of the subpanel)) was 1.98 µM, the Selectivity index ([5]; full panel MID / subpanel MID, Renal Cancer) was 1.26 and the GI50 ([6]; Homo sapiens, CNS Cancer subpanel, read-out: MG-MID (GI50 average of the subpanel)) was 2.6 µM. It also gave a Selectivity index ([6]; full panel MID / subpanel MID, CNS Cancer) of 0.96, a GI50 ([7]; Homo sapiens, Ovarian Cancer subpanel, read-out: MG-MID (GI50 average of the subpanel)) of 2.29 µM and a Selectivity index ([7]; full panel MID / subpanel MID, Ovarian Cancer) of 1.09. The GI50 ([8]; Homo sapiens) was 5.19 µM, the CC50 [8, 34] was > 100 µM and the TGI [8] was >100 µM. For the same molecule, the LC50 (50% lethal concentration) [9] was > 100 µM, the CC50 [10, 34] was > 100 µM and the TGI [10] was >100 µM. The GI50 ([11]; Homo sapiens) was 3.22 µM, the LC50 ([11]; Homo sapiens) was > 100 µM and the TGI [11] was >100 µM. For the same molecule, the GI50 ([12]; Homo sapiens) was 2.94 µM, the LC50 (concentration giving 50% net cell kill) ([12]; Homo sapiens) was > 100 µM and the TGI [12] was >100 µM. The GI50 ([13]; Homo sapiens) was 2.32 µM, the TGI [13] was 4.02 µM and the GI50 ([14]; Homo sapiens) was 5.18 µM. For the same molecule, the CC50 [14, 34] was > 100 µM, the TGI [14] was 56.8 µM and the GI50 ([15]; Homo sapiens) was 2.56 µM. For the same molecule, the LC50 ([15]; Homo sapiens) was 54.7 µM, the TGI [15] was 6.62 µM and the GI50 ([16]; Homo sapiens, HL-60, five-dose test) was > 100 µM. For the same molecule, the CC50 ([16]; Homo sapiens, HL-60, five-dose test, read-out: LC50 (the source's name)) was > 100 µM, the TGI ([16]; five-dose test) was >100 µM and the TGI [17] was >100 µM. The LC50 (concentration killing 50% of cells) ([17]; Homo sapiens) was > 100 µM, the TGI [18] was 4.04 µM and the GI50 ([18]; Homo sapiens) was 1.63 µM. For the same molecule, the TGI [19] was 4.02 µM, the GI50 ([19]; Homo sapiens) was 1.92 µM and the CC50 [19, 34] was 8.44 µM. For the same molecule, the CC50 ([20]; Homo sapiens, K562, read-out: LC50 (the source's name)) was > 100 µM, the TGI [20] was >100 µM and the GI50 ([21]; Homo sapiens) was 1.81 µM. It also gave a TGI [21] of 3.79 µM, a TGI [22] of 3.98 µM and a GI50 ([22]; Homo sapiens) of 1.84 µM. The GI50 ([23]; Homo sapiens, U-251) was 2.03 µM, the TGI [23] was 4.26 µM and the GI50 ([24]; Homo sapiens) was 3.16 µM. For the same molecule, the CC50 [24, 34] was > 100 µM, the TGI [24] was >100 µM and the TGI [25] was >100 µM. For the same molecule, the CC50 [25, 34] was > 100 µM, the GI50 ([26]; Homo sapiens) was 2.03 µM and the TGI [26] was 4.13 µM. The GI50 [27] was 2.19 µM, the CC50 ([27]; read-out: LC50 (the source's name)) was > 100 µM and the GI50 ([28]; Homo sapiens) was 2.07 µM. For the same molecule, the CC50 [28, 34] was > 100 µM, the TGI [28] was 5.10 µM and the GI50 ([29]; Homo sapiens) was 6.07 µM. For the same molecule, the LC50 (concentration killing 50% of cells) ([29]; Homo sapiens) was > 100 µM, the TGI [29] was >100 µM and the GI50 ([30]; Homo sapiens) was 3.45 µM. The CC50 [30, 34] was > 100 µM, the TGI [30] was 16.2 µM and the GI50 ([31]; Homo sapiens, non-small cell lung cancer subpanel, read-out: MG-MID (GI50 average of the subpanel)) was 2.8 µM. The Selectivity index ([31]; full panel MID / subpanel MID, non-small cell lung cancer) was 0.89, the TGI [32] was 33.7 µM and the GI50 ([32]; Homo sapiens) was 5.38 µM. For the same molecule, the LC50 (concentration causing 50% net cell kill) ([32]; Homo sapiens) was > 100 µM, the CC50 [33, 34] was > 100 µM and the TGI [33] was >100 µM.
